This is an account of results in US10934253B2, “Therapeutic compounds and methods” (UNIVERSITY OF TASMANIA, priority 2017, dated 2021).

Structures are written as SMILES.

Holding throughout (format): cell-based
Assay [1] relates to HepG2 cells. Nature of the assay: Cell viability in the presence of a mitochondrial inhibitor (rotenone 10 μM). The note with it: Homo sapiens, HepG2, 48 h, read-out: CELL VIABILITY [%]. As to the method:
(§1) Cytoprotection of HepG2 cells by naphthoquinones was quantified in the presence of the mitochondrial toxin, rotenone. Briefly, HepG2 cells were seeded in 96-well plates at 5000 cells/well in DMEM with 0.3 g/l glucose, 10% FBS and Penicillin-Streptomycin-Glutamine. After overnight incubation under standard conditions, cells were treated with the test compounds (10 μM) for 2 days before cells were challenged with 1 μM rotenone in the presence of 10 μM test compounds in Hank's balanced salt solution (HBSS) for 6 hours. This was followed by post-incubation for an additional 18 hours with only 10 μM test compounds in HBSS. For measurement of cell viability, cells were washed with 100 μL PBS twice and then lysed using 40 μL lysis solution (4 mM EDTA, 0.2% Triton X-100) for 5 min at room temperature (RT) on an orbital shaker at 200 rpm. Then 10 μL of the lysate was mixed with 90 μL of enzyme-substrate mixture (as described above) in a white 96 well plate and luminescence was measured immediately using a plate-reader (Fluoroscan Ascent, Thermo Scientific). The data is expressed as % viability compared to the untreated (no-rotenone) control.
The cytoprotective effects of representative compounds of Formula (I) were further examined in vitro in response to rotenone toxicity at (10 μM). […] Cells were treated with the representative compounds of Formula (I) compounds (10 μM) for 2 days before cells were challenged with 10 μM rotenone.
Vitamin K, Menadione and Idebenone were used as comparative controls.

Assay [2] concerns HepG2 cells. Briefly: Extracellular lactate levels, enzyme-linked colorimetric assay. The note with it: HepG2 culture medium, 25 mM glucose, supernatant after 48 h, standardized to protein. As to the method:
Lactate concentrations in culture medium were determined by an enzyme-linked colorimetric assay. Briefly, 150,000 HepG2 cells were seeded in normal growth media (DMEM, 10% FCS, Pen/Strep) in each well of a 6-well plate (Life Science, USA) and incubated for 24 h. The media was replaced with growth media containing (25 mM glucose,) with and without test compounds. Three untreated wells containing only cells were considered the experimental baseline control and all compounds were tested in three different wells simultaneously. Supernatants were collected after 48 h and transferred into 96-well format. After the addition of 90 μl of reaction buffer (10 mM KH2PO4 pH 7.8, 1 mg/ml BSA, 0.5 mM PMS, 2 mM EDTA, 0.6 mM DCPIP, 0.8 mM NAD+, 5 U/ml glutamate-pyruvate-transaminase, 1.5 mM glutamate, 12.5 U/ml lactate dehydrogenase) the plate was incubated at 30° C. inside a multimode plate reader (Multiscan Go, Thermo Scientific) and absorbance was measured at 600 nm over a period of 100 minutes. A standard curve was generated using media spiked with known lactate concentrations. Finally, protein levels were quantified and the lactate concentration of each well was standardized to its protein content and was then expressed as % of control.
The extent of lactate reduction in the cell culture media by the test compounds of the subject invention and the Comparative Compounds vitamin K, menadione and idebenone is shown below in Table 6.

Assay [3] relates to HepG2 cells. Nature of the assay: Rescue of cell viability in the presence of a mitochondrial inhibitor (rotenone 1 μM). The note with it: Homo sapiens, HepG2. As to the method: as §1
The extent of protection of cellular viability against a rotenone challenge of representative compounds of Formula (I) is shown below in Table 5. Vitamin K, Menadione and Idebenone were used as comparative controls. DMSO was used as a control.

Assay [4] relates to HepG2 cells. Briefly: Acute ATP rescue assay (impaired mitochondrial function, rotenone). The note with it: Homo sapiens, 1 h; HepG2; 1 μM quinones with rotenone 10 μM, 60 minutes, glucose-free DMEM; % ATP compared to untreated (no-rotenone) control. As to the method:
HepG2 cells were seeded at a density of 5000 cells per well in a 96-well plate and incubated for 24 hours in DMEM with 0.3 g/l glucose, 10% FBS and Penicillin-Streptomycin-Glutamine. Cells were treated with 1 μM quinones in presence or absence of rotenone (10 μM), for 60 minutes in glucose-free DMEM ATP levels were quantified using luminescence from the ATP-dependent enzymatic oxidation of luciferin by luciferase. Cells were lysed in a volume of 40 μl (4 mM EDTA, 0.2% Triton X-100) for five minutes at room temperature (RT) on an orbital shaker at 200 rpm. […] Luminescence was quantified immediately using a multimode plate reader (Fluoroscan Ascent, Thermo Scientific). ATP levels were standardized to protein levels using a commercial BCA assay (Protein DC; BioRad) and changes were calculated as percentage relative to levels of DMSO-treated control cells. Data is expressed as % ATP compared to the untreated (no-rotenone) control.
Vitamin K, menadione and idebenone were used as comparative controls. DMSO was used as a control.

A word on the viability: it is a read-out of living cells in per cent, often relative to untreated cells. With `COC(=O)C(Cc1ccccc1)NC(=O)CCCC1=C(C)C(=O)c2ccccc2C1=O` (stereo in doubt) [UTA #35, (R)-methyl-2(4-(3-methyl-1,4-naphthoquinone-2-yl)butamido)-3-phenylpropanoate], in the assay with HepG2 cells [1], the viability at 10 µM was found to be 76.2%.
For the molecule `CCCCC1=C(C)C(=O)c2ccccc2C1=O` [UTA #19], the “Extracellular lactate [% control]” value with HepG2 cells [2] is listed as 65.3 % control.
On the same count and under the same terms, for `COc1ccc(CC2=C(C)C(=O)c3ccccc3C2=O)cc1OC` [UTA #20] the value was 78.6 % control.
As for `CCCCCCCC1=C(C)C(=O)c2ccccc2C1=O` [UTA #21], in the assay on HepG2 cells [2], the “Extracellular lactate [% control]” value is recorded as 75.6 % control.
Still for that read-out and setting: for `CC1=C(CCC2CCCC2)C(=O)c2ccccc2C1=O` [UTA #22] the value was 73 % control.
Take `CC1=C(CCC(C)O)C(=O)c2ccccc2C1=O` (centres unmarked) [UTA #24]: the viability at 10 µM with HepG2 cells [1] came out at 72.8%.
As for `CC1=C(CCCC(=O)N2CCC[C@H]2C(=O)OC(C)(C)C)C(=O)c2ccccc2C1=O` [UTA #42, (S)-tert-butyl-1-(4-(3-methyl-1,4-naphthoquinone-2-yl)butanoyl)pyrrolidine-2-carboxylate], in the assay on HepG2 cells [1], the viability at 10 µM turned out to be 64.7%.
For the molecule `CC1=C(CCCC(=O)N2CCC[C@H]2C(=O)O)C(=O)c2ccccc2C1=O` [UTA #43, (S)-1-(4-(3-methyl-1,4-naphthoquinone-2-yl)butanoyl)pyrrolidine-2-carboxylic Acid], the viability at 10 µM with HepG2 cells [3] and in the assay with HepG2 cells [1] was 92.7% in each case.
With `CC1=C(CCCC(=O)NCC(=O)OC(C)(C)C)C(=O)c2ccccc2C1=O` [UTA #47], the viability at 10 µM with HepG2 cells [1] came to 74.4%.
Take `CC1=C(CCCC(=O)N[C@@H](CC(C)C)C(=O)O)C(=O)c2ccccc2C1=O` [UTA #54]: the viability at 10 µM with HepG2 cells [3] and in the assay on HepG2 cells [1] was 98.7% each time. Further, the “Extracellular lactate [% control]” value in the assay with HepG2 cells [2] stood at 79.1 % control.
For the molecule `CC1=C(CCCC(=O)N[C@@H](Cc2ccc(O)cc2)C(=O)OC(C)(C)C)C(=O)c2ccccc2C1=O` [UTA #55], the activity at 1 µM in the assay with HepG2 cells [4] is 94.8%. Also, in the assay on HepG2 cells [1], the viability at 10 µM worked out at 78.6%.
Regarding `CC1=C(CCCC(=O)N2CCC[C@H]2CO)C(=O)c2ccccc2C1=O` [UTA #61, (S)-2-(4-(2-(hydroxymethyl)pyrrolidin-1-yl)-4-oxobutyl)-3-methyl-1,4-naphthoquinone], the viability at 10 µM with HepG2 cells [3] and with HepG2 cells [1] was 101% each time.
For `CC1=C(CCCC(=O)N[C@H](CO)Cc2ccccc2)C(=O)c2ccccc2C1=O` [UTA #62, (S)—N-(1-hydroxy-3-phenylpropan-2-yl)-4-(3-methyl-1,4-naphthyoquinone-2-yl)butanamide], in the assay with HepG2 cells [4], the activity at 1 µM was 91.2%. Besides, the viability at 10 µM in the assay on HepG2 cells [3] and in the assay with HepG2 cells [1] was 93.1% throughout.
For `CC1=C(CCC(=O)N[C@@H](Cc2ccccc2)C(=O)OC(C)(C)C)C(=O)c2ccccc2C1=O` [UTA #65], the activity at 1 µM in the assay with HepG2 cells [4] amounted to 91.1%. Moreover, the viability at 10 µM with HepG2 cells [1] was determined as 60.1%.
`CC1=C(CCC(=O)N[C@@H](Cc2ccccc2)C(=O)O)C(=O)c2ccccc2C1=O` [UTA #66]: in the assay with HepG2 cells [1], the viability at 10 µM stood at 66.9%. In addition, the “Extracellular lactate [% control]” value in the assay on HepG2 cells [2] came out at 66 % control.
`CC1=C(CCCCC(=O)O)C(=O)c2ccccc2C1=O` [UTA #67, 25-(3-methyl-1,4-naphthoquinone-2-yl)pentanoic acid]: the activity at 1 µM in the assay on HepG2 cells [4] came to 97.1%. In addition, in the assay with HepG2 cells [1], the viability at 10 µM came out at 74.9%. The “Extracellular lactate [% control]” value in the assay with HepG2 cells [2] was found to be 67.6 % control.
With `CC1=C(CCCCC(=O)N[C@@H](Cc2ccccc2)C(=O)OC(C)(C)C)C(=O)c2ccccc2C1=O` [UTA #71], the activity at 1 µM in the assay with HepG2 cells [4] is 92.2%. The viability at 10 µM in the assay on HepG2 cells [1] was 70.5%.
Take `CC1=C(CCCCC(=O)N[C@@H](Cc2ccccc2)C(=O)O)C(=O)c2ccccc2C1=O` [UTA #72]: in the assay on HepG2 cells [4], the activity at 1 µM is 84.8%. In addition, the viability at 10 µM with HepG2 cells [3] and in the assay with HepG2 cells [1] was 90.7% in each case.
`CC1=C(CCCC(=O)NCCc2c[nH]c3ccccc23)C(=O)c2ccccc2C1=O` [UTA #73, N-(2-(1H-indol-3-yl)ethyl)-4-(3-methyl-1,4-naphthoquinone-2-yl)butanamide]: the activity at 1 µM with HepG2 cells [4] came out at 96.1%. Also, the viability at 10 µM with HepG2 cells [3] and in the assay with HepG2 cells [1] was 86.2% in each case.
`CC1=C(CCCC(=O)NCCc2ccc(O)cc2)C(=O)c2ccccc2C1=O` [UTA #74, N-(4-hydroxyphenethyl)-4-(3-methyl-1,4-naphthoquinone-2-yl)butanamide]: in the assay with HepG2 cells [4], the activity at 1 µM stood at 101%. In addition, the viability at 10 µM in the assay on HepG2 cells [3] and in the assay on HepG2 cells [1] was 91.7% throughout.
Take `CC1=C(CCCCCC(=O)N[C@@H](Cc2ccccc2)C(=O)OC(C)(C)C)C(=O)c2ccccc2C1=O` [UTA #75]: the activity at 1 µM in the assay on HepG2 cells [4] worked out at 95.4%. Further, the viability at 10 µM with HepG2 cells [1] is 61.4%.
For `CC1=C(CCCCCC(=O)N[C@@H](Cc2ccccc2)C(=O)O)C(=O)c2ccccc2C1=O` [UTA #76], the viability at 10 µM with HepG2 cells [1] came to 68.1%.
For `CC1=C(CCCC(=O)N[C@@H](CO)Cc2ccccc2)C(=O)c2ccccc2C1=O` [UTA #78], the viability at 10 µM in the assay on HepG2 cells [1] was 80%.
As for `CC1=C(CCCC(=O)N[C@@H](CO)c2ccccc2)C(=O)c2ccccc2C1=O` [UTA #80], the viability at 10 µM in the assay on HepG2 cells [3] and with HepG2 cells [1] was 87.6% in each case.
As for `CC1=C(CCCC(=O)N[C@H](CO)c2ccccc2)C(=O)c2ccccc2C1=O` [UTA #81], the viability at 10 µM in the assay with HepG2 cells [3] and in the assay with HepG2 cells [1] was 83.8% throughout.
`CC1=C(CCCCCC(=O)N[C@H](CO)Cc2ccccc2)C(=O)c2ccccc2C1=O` [UTA #84]: the activity at 1 µM with HepG2 cells [4] came out at 90.4%. Besides, the viability at 10 µM with HepG2 cells [1] stood at 74.4%.
For the molecule `CC1=C(CCCCC(=O)NCCc2ccc(O)cc2)C(=O)c2ccccc2C1=O` [UTA #88], the viability at 10 µM with HepG2 cells [3] and with HepG2 cells [1] was 91.8% in each case.
For `CC1=C(CCCCCC(=O)NCCc2ccc(O)cc2)C(=O)c2ccccc2C1=O` [UTA #89], the viability at 10 µM in the assay with HepG2 cells [3] and in the assay on HepG2 cells [1] was 85.2% throughout.
With `CCCCNC(=O)CCCC1=C(C)C(=O)c2ccccc2C1=O` [UTA #91], the viability at 10 µM in the assay on HepG2 cells [3] and in the assay on HepG2 cells [1] was 82% each time.
As to `COC(=O)[C@@H]1C[C@@H](O)CN1C(=O)CCCC1=C(C)C(=O)c2ccccc2C1=O` [UTA #93], in the assay with HepG2 cells [1], the viability at 10 µM was 74.4%.
Same read-out and setting: next, `CC1=C(CCCC(=O)N[C@H](Cc2ccccc2)C(=O)O)C(=O)c2ccccc2C1=O` [UTA #94]: 71.7%.
As for `COC(=O)[C@@H](NC(=O)CCCC1=C(C)C(=O)c2ccccc2C1=O)c1ccccc1` [UTA #95], the viability at 10 µM in the assay with HepG2 cells [3] and with HepG2 cells [1] was 86.1% in each case.
`COC(=O)[C@H](NC(=O)CCCC1=C(C)C(=O)c2ccccc2C1=O)c1ccccc1` [UTA #97]: the viability at 10 µM in the assay with HepG2 cells [3] and in the assay with HepG2 cells [1] was 84.8% in each case.
Take `O=C(CCCC1=CC(=O)c2ccccc2C1=O)NCCc1ccc(O)cc1` [UTA #113]: in the assay with HepG2 cells [1], the viability at 10 µM stood at 73.4%.
Regarding `O=C(CCCC1=CC(=O)c2ccccc2C1=O)N[C@H](CO)Cc1ccccc1` [UTA #115], the viability at 10 µM in the assay with HepG2 cells [3] and in the assay on HepG2 cells [1] was 80.8% throughout.
Consider `O=C(CCCC1=CC(=O)c2ccccc2C1=O)N[C@@H](Cc1ccccc1)C(=O)O` [UTA #117], for which the viability at 10 µM in the assay with HepG2 cells [3] and in the assay with HepG2 cells [1] was 80.3% throughout.
